Data reported in patent US11028095B2, “Spiro-lactam and bis-spiro-lactam NMDA receptor modulators and uses thereof” (Aptinyx Inc., priority 2016, dated 2021).

Experiments:
[1] = target: T1, NMDAR2C expressing HEK cell membranes (Homo sapiens, UniProt Q05586+Q14957); experiment: NMDAR agonist assay, [3H]MK-801 binding, NMDAR2C; type: biochemical; conditions: 50 μM glutamate
T1 construct: expressed in transfected cells; host or cells: HEK cells (membrane extract)
Protocol: (§1) (nonequilibrium conditions).
(§2) The baseline value was determined from the best fit curve of the DPM values modeled using the GraphPad program and the log(agonist) vs. response(three parameters) algorithm was then subtracted from all points in the dataset.

[2] = Microsomal stability (Human); type: in vitro ADME; conditions: human microsomes
Protocol: (§3) Microsomal stability of disclosed compounds was investigated. The following table indicates the percent of compound remaining after 60 minutes.

[3] = Microsomal stability (Rat); type: in vitro ADME; conditions: rat microsomes
Protocol: as §3

[4] = test system: positive (hedonic) 50-kHz ultrasonic vocalizations (USVs); experiment: Positive Emotional Learning (PEL) test; type: in vivo; conditions: rat, PO, one hour after administration
Summary of the method: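 Rats received test compound or vehicle (0.5% carboxymethyl cellulose in saline) 1 h before 3 min of experimenter-delivered rough-and-tumble play in alternating 15 s play and no-stimulation blocks. Frequency-modulated 50-kHz USVs during no-stimulation (CS) periods were counted; animals not habituated beforehand.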

[5] = target: T2, NMDAR2D expressing HEK cell membranes (Homo sapiens, UniProt O15399); experiment: NMDAR agonist assay, [3H]MK-801 binding, NMDAR2D; type: biochemical; conditions: 50 μM glutamate
T2 construct: expressed in transfected cells; host or cells: HEK cells (membrane extract)
T2 sequence (O15399 28-1336, other chains not shown): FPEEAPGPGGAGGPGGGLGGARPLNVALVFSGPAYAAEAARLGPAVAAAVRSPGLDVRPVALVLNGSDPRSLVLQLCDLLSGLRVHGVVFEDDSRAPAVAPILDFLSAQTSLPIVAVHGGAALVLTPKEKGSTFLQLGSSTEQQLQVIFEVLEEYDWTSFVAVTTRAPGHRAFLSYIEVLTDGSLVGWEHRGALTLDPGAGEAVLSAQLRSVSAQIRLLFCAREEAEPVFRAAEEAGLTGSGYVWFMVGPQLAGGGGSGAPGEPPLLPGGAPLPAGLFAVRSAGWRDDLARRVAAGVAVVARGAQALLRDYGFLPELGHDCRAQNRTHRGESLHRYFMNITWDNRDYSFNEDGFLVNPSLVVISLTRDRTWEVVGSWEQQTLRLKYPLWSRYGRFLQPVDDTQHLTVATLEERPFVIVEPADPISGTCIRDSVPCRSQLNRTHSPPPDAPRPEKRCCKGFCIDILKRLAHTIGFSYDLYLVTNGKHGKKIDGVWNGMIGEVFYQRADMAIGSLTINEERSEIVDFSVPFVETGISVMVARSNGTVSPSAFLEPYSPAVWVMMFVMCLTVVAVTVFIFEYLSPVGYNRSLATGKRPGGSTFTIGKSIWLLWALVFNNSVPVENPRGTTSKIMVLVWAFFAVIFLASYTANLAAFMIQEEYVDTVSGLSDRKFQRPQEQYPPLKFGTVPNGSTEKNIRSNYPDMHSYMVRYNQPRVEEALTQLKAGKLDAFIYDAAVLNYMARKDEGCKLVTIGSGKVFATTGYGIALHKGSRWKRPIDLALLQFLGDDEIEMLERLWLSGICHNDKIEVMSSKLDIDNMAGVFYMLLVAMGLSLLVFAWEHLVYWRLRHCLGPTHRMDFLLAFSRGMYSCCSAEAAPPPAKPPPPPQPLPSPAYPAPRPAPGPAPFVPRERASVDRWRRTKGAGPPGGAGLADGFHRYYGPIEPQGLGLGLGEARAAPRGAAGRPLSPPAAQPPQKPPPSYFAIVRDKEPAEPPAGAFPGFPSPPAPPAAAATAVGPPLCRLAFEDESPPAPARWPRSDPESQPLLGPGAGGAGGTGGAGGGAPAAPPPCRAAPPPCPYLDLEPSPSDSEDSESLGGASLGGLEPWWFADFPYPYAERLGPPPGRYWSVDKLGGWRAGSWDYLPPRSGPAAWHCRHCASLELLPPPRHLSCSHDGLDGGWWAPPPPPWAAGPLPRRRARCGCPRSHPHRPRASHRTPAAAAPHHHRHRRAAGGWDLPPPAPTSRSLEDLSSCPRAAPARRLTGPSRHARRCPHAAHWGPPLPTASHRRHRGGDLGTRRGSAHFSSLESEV
Protocol: as §1, §2

Plasma stability (Rat) = type: in vitro ADME
Protocol: (§4) Plasma stability of disclosed compounds was investigated. The following table indicates the percent of compound remaining after 60 minutes.

[6] = target: T3, NMDAR2A expressing HEK cell membranes (Homo sapiens, UniProt Q12879); experiment: NMDAR agonist assay, [3H]MK-801 binding, NMDAR2A; type: biochemical; conditions: 50 μM glutamate; for EC50: [3H]MK-801 binding, read-out: NMDAR2A: log EC50 (converted)
T3 construct: expressed in transfected cells; host or cells: HEK cells (membrane extract)
Protocol: as §1, §2

Plasma stability (Human) = type: in vitro ADME
Protocol: as §4

[7] = target: T4, NMDAR2B expressing HEK cell membranes (Homo sapiens, UniProt Q13224); experiment: NMDAR agonist assay, [3H]MK-801 binding, NMDAR2B; type: biochemical; conditions: 50 μM glutamate; for EC50: [3H]MK-801 binding, read-out: NMDAR2B log EC50 (converted)
T4 construct: expressed in transfected cells; host or cells: HEK cells (membrane extract)
T4 sequence (Q13224 27-1484, other chains not shown): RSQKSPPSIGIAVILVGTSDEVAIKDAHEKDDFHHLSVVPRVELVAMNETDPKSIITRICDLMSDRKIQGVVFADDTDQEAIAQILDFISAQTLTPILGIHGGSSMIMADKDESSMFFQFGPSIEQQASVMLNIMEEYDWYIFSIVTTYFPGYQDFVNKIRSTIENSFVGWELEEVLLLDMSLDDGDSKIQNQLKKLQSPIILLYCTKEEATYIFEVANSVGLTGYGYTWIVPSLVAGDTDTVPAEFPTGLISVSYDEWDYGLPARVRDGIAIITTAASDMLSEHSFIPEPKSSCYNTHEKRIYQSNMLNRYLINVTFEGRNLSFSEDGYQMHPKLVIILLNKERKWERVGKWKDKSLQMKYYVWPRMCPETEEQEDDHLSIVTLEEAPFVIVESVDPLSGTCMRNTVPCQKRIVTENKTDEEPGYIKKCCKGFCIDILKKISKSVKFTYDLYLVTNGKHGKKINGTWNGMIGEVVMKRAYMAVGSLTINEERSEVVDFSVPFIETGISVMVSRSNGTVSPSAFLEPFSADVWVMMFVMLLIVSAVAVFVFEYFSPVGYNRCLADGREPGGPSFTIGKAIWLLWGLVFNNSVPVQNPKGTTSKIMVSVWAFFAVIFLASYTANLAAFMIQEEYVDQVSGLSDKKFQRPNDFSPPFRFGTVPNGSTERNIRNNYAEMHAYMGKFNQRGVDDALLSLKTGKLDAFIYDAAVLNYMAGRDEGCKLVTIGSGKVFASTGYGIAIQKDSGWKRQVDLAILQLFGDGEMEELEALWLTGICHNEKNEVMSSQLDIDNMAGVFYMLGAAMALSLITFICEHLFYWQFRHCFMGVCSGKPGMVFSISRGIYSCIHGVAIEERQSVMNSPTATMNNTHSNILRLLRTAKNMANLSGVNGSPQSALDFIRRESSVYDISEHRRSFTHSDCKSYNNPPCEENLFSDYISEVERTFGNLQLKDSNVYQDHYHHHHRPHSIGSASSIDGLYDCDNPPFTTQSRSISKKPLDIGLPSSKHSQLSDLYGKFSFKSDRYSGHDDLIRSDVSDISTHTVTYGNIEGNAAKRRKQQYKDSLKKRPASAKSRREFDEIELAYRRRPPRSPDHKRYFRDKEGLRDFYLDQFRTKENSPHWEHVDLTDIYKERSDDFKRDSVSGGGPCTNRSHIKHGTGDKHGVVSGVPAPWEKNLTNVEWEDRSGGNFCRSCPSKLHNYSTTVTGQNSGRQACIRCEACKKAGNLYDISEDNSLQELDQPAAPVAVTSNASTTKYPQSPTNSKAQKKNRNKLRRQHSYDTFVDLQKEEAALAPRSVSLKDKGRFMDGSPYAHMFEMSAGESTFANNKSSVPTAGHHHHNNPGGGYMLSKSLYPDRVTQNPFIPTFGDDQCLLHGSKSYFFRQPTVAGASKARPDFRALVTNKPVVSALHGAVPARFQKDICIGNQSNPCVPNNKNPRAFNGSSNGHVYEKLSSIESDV
Protocol: as §1, §2

[8] = target: T5, NMDAR2C expressing HEK cell membranes (Homo sapiens, UniProt Q14957); experiment: NMDAR agonist assay, [3H]MK-801 binding, NMDAR2C; type: biochemical; conditions: 50 μM glutamate
T5 construct: expressed in transfected cells; host or cells: HEK cells (membrane extract)
T5 sequence (Q14957 20-1233, other chains not shown): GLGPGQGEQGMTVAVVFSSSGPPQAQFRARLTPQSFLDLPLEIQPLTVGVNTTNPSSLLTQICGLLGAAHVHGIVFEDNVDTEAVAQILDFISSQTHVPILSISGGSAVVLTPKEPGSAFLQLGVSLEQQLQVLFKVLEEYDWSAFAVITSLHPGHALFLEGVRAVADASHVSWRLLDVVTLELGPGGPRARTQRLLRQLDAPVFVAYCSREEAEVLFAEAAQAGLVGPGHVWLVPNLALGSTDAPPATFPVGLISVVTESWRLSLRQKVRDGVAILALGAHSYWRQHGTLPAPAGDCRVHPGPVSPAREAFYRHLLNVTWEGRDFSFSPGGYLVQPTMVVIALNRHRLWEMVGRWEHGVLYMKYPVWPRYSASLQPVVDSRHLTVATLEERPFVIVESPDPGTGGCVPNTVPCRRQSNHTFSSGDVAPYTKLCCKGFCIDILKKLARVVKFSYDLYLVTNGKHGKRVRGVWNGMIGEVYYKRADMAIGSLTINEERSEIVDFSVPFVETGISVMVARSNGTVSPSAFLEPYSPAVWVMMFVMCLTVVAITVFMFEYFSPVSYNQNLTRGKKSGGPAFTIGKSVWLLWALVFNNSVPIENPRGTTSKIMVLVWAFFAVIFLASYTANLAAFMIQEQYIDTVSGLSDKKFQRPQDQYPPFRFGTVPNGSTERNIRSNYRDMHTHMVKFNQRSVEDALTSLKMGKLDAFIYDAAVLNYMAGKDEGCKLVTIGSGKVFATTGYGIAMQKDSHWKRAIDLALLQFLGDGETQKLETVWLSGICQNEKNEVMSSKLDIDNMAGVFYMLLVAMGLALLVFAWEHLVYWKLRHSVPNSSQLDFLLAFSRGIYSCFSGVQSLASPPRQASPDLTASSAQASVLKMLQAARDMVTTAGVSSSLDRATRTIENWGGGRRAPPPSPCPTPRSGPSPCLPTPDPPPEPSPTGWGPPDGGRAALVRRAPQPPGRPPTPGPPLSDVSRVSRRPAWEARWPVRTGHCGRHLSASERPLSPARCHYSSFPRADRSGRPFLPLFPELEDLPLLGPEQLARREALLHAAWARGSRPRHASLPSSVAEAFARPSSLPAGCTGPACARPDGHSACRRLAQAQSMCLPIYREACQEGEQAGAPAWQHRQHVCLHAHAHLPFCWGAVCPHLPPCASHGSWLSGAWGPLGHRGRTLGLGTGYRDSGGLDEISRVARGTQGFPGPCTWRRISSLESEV
Protocol: as §1, §2

[9] = target: T6, NMDAR2D expressing HEK cell membranes (Homo sapiens, UniProt O15399+Q05586); experiment: NMDAR agonist assay, [3H]MK-801 binding, NMDAR2D; type: biochemical; conditions: 50 μM glutamate; for EC50: [3H]MK-801 binding, read-out: NMDAR2D: log EC50 (converted)
T6 construct: expressed in transfected cells; host or cells: HEK cells (membrane extract)
T6 sequence (O15399 28-1336, other chains not shown): as the sequence (O15399 28-1336, other chains not shown) above
Protocol: as §1, §2

[10] = Oral pharmacokinetics (plasma, brain, CSF); type: in vivo; conditions: Sprague Dawley rats, per os, 10 mg/kg
Protocol: In another experiment, Sprague Dawley rats were dosed per os using a normal saline formulation containing 10 mg/kg of the compounds identified in the table below. Plasma, brain, and CSF samples were analyzed at various time points over a 24 hour period. The table below summarizes the results of the oral pharmacokinetics.

IV pharmacokinetics = type: in vivo; conditions: Sprague Dawley rats, 2 mg/kg, normal saline
Protocol: Sprague Dawley rats were dosed intravenously using a normal saline formulation containing 2 mg/kg of the compounds identified in the below table. The table below summarizes the results of the IV pharmacokinetics.

[11] = target: T7, NMDAR2B expressing HEK cell membranes (Homo sapiens, UniProt Q05586+Q13224); experiment: NMDAR agonist assay, [3H]MK-801 binding, NMDAR2B; type: biochemical; conditions: 50 μM glutamate; [3H]MK-801 binding; read-out: NMDAR2B log EC50 (converted)
T7 construct: expressed in transfected cells; host or cells: HEK cells (membrane extract)
Protocol: as §1, §2

[12] = [3H]MK-801 binding, read-out: NMDAR2C: log EC50 (converted)
[13] = Sprague Dawley, rat, plasma, po
[14] = Sprague Dawley, rat, in vivo, iv

T1 sequence (Q14957 20-1233, other chains not shown): as the sequence (Q14957 20-1233, other chains not shown) above

Structure (SMILES) | Microsomal (Human): percent of compound remaining after 60 minutes [2] [%] | Microsomal (Rat): percent of compound remaining after 60 minutes [3] [%] | NMDAR2D: % maximal [3H]MK-801 binding relative to 1 mM glycine [5] | Plasma (Rat): percent of compound remaining after 60 minutes (Plasma stability (Rat)) [%] | NMDAR2A: % maximal [3H]MK-801 binding relative to 1 mM glycine [6] | Plasma (Human): percent of compound remaining after 60 minutes (Plasma stability (Human)) [%] | EC50 [7] [nM] | NMDAR2B: % maximal [3H]MK-801 binding relative to 1 mM glycine [7] | NMDAR2C A: % maximal [3H]MK-801 binding relative to 1 mM glycine [8] | EC50 [9] [nM] | EC50 [6] [nM] | further results
O=C1NCC12CCC1(CNC1=O)N2Cc1ccccc1 (single isomer, unassigned) [AC-1, 5-benzyl-2,5,8-triazadispiro[3.1.36.24]undecane-1,7-dione] | 95 | 100 | + (<100%=+) | 100 | + (<100%=+) | 100 | < 1 | + (<100%=+) |  |  |  | Emax ([1]; relative to 1 mM glycine, read-out: NMDAR2C A: % maximal [3H]MK-801 binding relative to 1 mM glycine): < 100%; Max Effect (mean number of 50 kHz USVs per 15 seconds) ([4]; dose 0.001-1 mg/kg): * (*: 6-10.9)
O=C1NCC12CCC1(CNC1=O)N2Cc1ccccc1 (single isomer, unassigned) [AC-3, 5-benzyl-2,5,8-triazadispiro[3.1.36.24]undecane-1,7-dione] | 77 | 83 | − (−=0) | 85 | + (<100%=+) | 92 | < 1 | + (<100%=+) | + (<100%=+) | > 100 | < 1 | 
C[C@@H](O)[C@H](NC(=O)C1CCC2(CNC2=O)N1Cc1ccccc1)C(N)=O (single isomer, unassigned) [AM] | 95 | 99 |  | 87 | + (<100%=+) | 88 |  | + (<100%=+) | − (−=0) | < 1 | < 1 | EC50 [1, 12]: > 100 nM; CSF Cmax ([10]; CSF): 0 ng/mL; Brain Cmax ([10]; brain): 0 ng/mL; AUC(0-t) [10, 13]: 97.6 ng·h/mL; bioavailability [10, 13]: 2%; Tmax ([10]; Sprague Dawley, rat, plasma, po, normal saline, read-out: Tmax): 0.33 h; Cmax ([10]; Sprague Dawley, rat, plasma, po, plasma, read-out: Cmax): 34.2 ng/mL; Max Effect (mean number of 50 kHz USVs per 15 seconds) ([4]; dose 0.1 mg/kg): * (*: 6-10.9); Emax ([9]; relative to 1 mM glycine, read-out: NMDAR2D: % maximal [3H]MK-801 binding relative to 1 mM glycine): < 100%; Vss (IV pharmacokinetics): 1.21 L/kg; AUC(0-t) (IV pharmacokinetics; [14]): 1000 ng·h/mL; clearance (IV pharmacokinetics; [14]): 33.3 mL/min/kg; half-life (IV pharmacokinetics; [14]): 2.38 h; C0 (IV pharmacokinetics; Sprague Dawley, rat, in vivo, iv, read-out: C0): 3460 ng/mL; EC50 [11]: < 1 nM
CC(C)(C)OC(=O)N1CC2(CNC2=O)CC12CNC2=O (centres unmarked) [AY-1] |  |  | + (<100%=+) |  | − (−=0) |  | < 1 | + (<100%=+) | + (<100%=+) |  | > 100 | EC50 [8, 12]: < 1 nM; EC50 ([5]; [3H]MK-801 binding, read-out: NMDAR2D: log EC50 (converted)): < 1 nM
